The numbers were not newly measured in article PMC11376147 (Chemical Science, 2024), which cites them from elsewhere.

Each structure is given as a SMILES string.

This series deals with T1, DC-SIGN ECD (Homo sapiens, UniProt Q9NNX6).
T1 sequence (Q9NNX6 66-404): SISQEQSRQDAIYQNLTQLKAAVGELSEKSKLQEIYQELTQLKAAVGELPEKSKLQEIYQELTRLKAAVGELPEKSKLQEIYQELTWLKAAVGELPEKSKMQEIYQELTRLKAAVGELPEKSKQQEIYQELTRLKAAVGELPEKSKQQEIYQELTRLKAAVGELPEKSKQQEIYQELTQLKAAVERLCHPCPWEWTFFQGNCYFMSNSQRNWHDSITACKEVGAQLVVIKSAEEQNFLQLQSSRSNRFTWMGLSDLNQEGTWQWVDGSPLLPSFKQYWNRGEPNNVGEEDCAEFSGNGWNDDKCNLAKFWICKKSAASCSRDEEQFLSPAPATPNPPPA
As to conditions: read-out: IC50 DC-SIGN; SPR inhibition, Spike surface; cited from earlier work.

As for `OC[C@H]1OC(O)[C@@H](O)[C@@H](O)[C@@H]1O` (stereo partly shown) [mannose], the 50% inhibitory concentration (IC50) is 3000 µM.

As a reminder, the IC50 is the concentration that gives 50% inhibition.
